In data set [1] the test system is Rattus norvegicus. The data set can be described thus: Anti-inflammatory activity in Rattus norvegicus Sprague-Dawley (rat) assessed as inhibition of carrageenan-induced paw edema at 10 mg/kg, po after 1.5 to 3 hr relative to control. The format is functional. On the technique in general: In the carrageenan paw model, swelling and tenderness develop within hours.

The test system of data set [2] is Rattus norvegicus. In words: Ulcerogenic activity in Rattus norvegicus Sprague-Dawley (rat) assessed as ulcer index at 10 mg/kg, po after 8 hr. It counts as toxicity, organism-based. Further details: dose 10 mg/kg, route oral. The following applies: in vivo.
Data set [3] deals with T1, Prostaglandin G/H synthase 1 (Ovis aries) (UniProt P05979).
T1 sequence (whole entry): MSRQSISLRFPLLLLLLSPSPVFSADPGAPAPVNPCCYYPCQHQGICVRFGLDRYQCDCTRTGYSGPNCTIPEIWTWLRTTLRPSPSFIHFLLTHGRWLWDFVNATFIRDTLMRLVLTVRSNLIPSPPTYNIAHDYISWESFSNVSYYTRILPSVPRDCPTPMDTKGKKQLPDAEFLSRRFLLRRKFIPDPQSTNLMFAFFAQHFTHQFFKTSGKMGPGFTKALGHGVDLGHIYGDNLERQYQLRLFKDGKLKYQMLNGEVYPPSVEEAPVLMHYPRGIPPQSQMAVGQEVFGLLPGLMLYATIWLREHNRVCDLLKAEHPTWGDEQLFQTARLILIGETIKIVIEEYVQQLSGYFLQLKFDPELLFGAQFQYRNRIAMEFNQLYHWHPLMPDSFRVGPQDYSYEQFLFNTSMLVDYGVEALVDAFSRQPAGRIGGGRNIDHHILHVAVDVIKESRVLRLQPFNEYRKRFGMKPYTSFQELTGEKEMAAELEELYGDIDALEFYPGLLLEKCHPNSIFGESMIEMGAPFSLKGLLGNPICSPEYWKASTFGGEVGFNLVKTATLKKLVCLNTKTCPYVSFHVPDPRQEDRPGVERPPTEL
In words: Inhibition of Ovis aries (sheep) COX-1 assessed as appearance of oxidized N,N,N',N'-tetramethyl-p-phenylenediamine at 20 uM by colorimetric analysis.

The values that follow come from ChEMBL document CHEMBL3045409, “Synthesis and biological evaluation of ester derivatives of indomethacin as selective COX-2 inhibitors” (Med Chem Res, 2012).

A word on the inhibition in vivo: it is the percentage by which the read-out fell short of the control. As a reminder, the inhibition is how much of the control response was suppressed.

On to `COc1ccc2c(c1)c(CC(=O)OCCc1c(C)cc(C)cc1C)c(C)n2C(=O)c1ccc(Cl)cc1`, for which the inhibition in vivo at 10 mg/kg in data set [1] came out at 9.04%.

Turning to `COc1ccc2c(c1)c(CC(=O)OCc1ccccc1)c(C)n2C(=O)c1ccc(Cl)cc1`, the inhibition in vivo at 10 mg/kg in data set [1] came out at 3.61%.

As for `COc1ccc2c(c1)c(CC(=O)OCCN1CCCCC1)c(C)n2C(=O)c1ccc(Cl)cc1`, in data set [1], the inhibition in vivo at 10 mg/kg was determined as 7.23%.

Take `COc1ccc2c(c1)c(CC(=O)Oc1c(Cl)c(Cl)c(Cl)c(Cl)c1Cl)c(C)n2C(=O)c1ccc(Cl)cc1`: the inhibition in vivo at 10 mg/kg in data set [1] amounted to 0%.

Regarding `COc1ccc2c(c1)c(CC(=O)Oc1ccc([N+](=O)[O-])cc1)c(C)n2C(=O)c1ccc(Cl)cc1`, in data set [1], the inhibition in vivo at 10 mg/kg was determined as 4.81%.

`CCOC(=O)c1ccc(OC(=O)Cc2c(C)n(C(=O)c3ccc(Cl)cc3)c3ccc(OC)cc23)cc1`: the UI in data set [2] came out at 0. For the same compound, in data set [3], the inhibition came to 12.9%. The inhibition in vivo at 10 mg/kg in data set [1] was 19.9%.

`CCCCOC(=O)c1ccc(OC(=O)Cc2c(C)n(C(=O)c3ccc(Cl)cc3)c3ccc(OC)cc23)cc1`: the inhibition in vivo at 10 mg/kg in data set [1] turned out to be 7.83%.

For `COc1ccc2c(c1)c(CC(=O)O)c(C)n2C(=O)c1ccc(Cl)cc1` [INDOMETHACIN], the UI in data set [2] came to 50. For the same compound, in data set [1], the inhibition in vivo at 10 mg/kg was determined as 13.9%.

With `COc1ccc2c(c1)c(CC(=O)OCCN1CCNCC1)c(C)n2C(=O)c1ccc(Cl)cc1`, the inhibition in vivo at 10 mg/kg in data set [1] was determined as 0%.

As for `COc1ccc2c(c1)c(CC(=O)OCc1ccoc1)c(C)n2C(=O)c1ccc(Cl)cc1`, in data set [1], the inhibition in vivo at 10 mg/kg is 0%.

Regarding `COc1ccc2c(c1)c(CC(=O)Oc1ccc(Cl)cc1)c(C)n2C(=O)c1ccc(Cl)cc1`, the inhibition in vivo at 10 mg/kg in data set [1] amounted to 0%.

As for `CCc1ccc(OC(=O)Cc2c(C)n(C(=O)c3ccc(Cl)cc3)c3ccc(OC)cc23)cc1`, the inhibition in vivo at 10 mg/kg in data set [1] came to 2.41%.
